Counter-ions that a name gives are not always drawn.
Experiments:
[1] = target: purified DHFR of the reference strain S. aureus ATCC 25923 (Staphylococcus aureus, UniProt P0A017); experiment: Inhibition of purified DHFR of reference strain S. aureus ATCC 25923; assay type: biochemical
[2] = system: purified DHFR of the multi-resistant strain S. aureus 157/4696; experiment: Inhibition of purified DHFR of multi-resistant strain S. aureus 157/4696; assay type: biochemical; conditions: determined graphically
Protocol: The inhibition of the enzyme was taken as a measurement for the antibacterial activity. It is determined using the method of Baccanari and Joyner (Biochemistry 20, 1710 (1981)); see also P. G. Hartman et al., FEB 242, 157-160 (1988).
The IC50 values (concentration at which the enzyme is inhibited to 50%) are determined graphically.
The following Table contains inhibitory concentrations determined in the above test for representative members of the class of compound defined by formula I. The C50 values (μM) are given against the purified DHFR of the reference strain S. aureus ATCC 35923 as well as against the purified DHFR of the multi-resistant strain S. aureus 157/4696. […] The inhibition constants of trimethoprim are also given as a comparison.

[3] = target: T1, purified DHFR of the opportunistic pathogen P. carinii (Pneumocystis carinii, UniProt P16184); experiment: biochemical; conditions: determined graphically
T1 sequence (P16184 1-206): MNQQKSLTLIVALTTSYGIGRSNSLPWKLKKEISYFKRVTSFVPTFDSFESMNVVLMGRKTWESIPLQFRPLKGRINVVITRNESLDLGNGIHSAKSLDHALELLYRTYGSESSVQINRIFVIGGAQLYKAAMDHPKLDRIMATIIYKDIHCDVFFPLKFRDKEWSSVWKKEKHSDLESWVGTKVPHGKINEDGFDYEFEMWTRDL

purified DHFR of the reference strain S. aureus ATCC 25923, sequence (P0A017 whole entry): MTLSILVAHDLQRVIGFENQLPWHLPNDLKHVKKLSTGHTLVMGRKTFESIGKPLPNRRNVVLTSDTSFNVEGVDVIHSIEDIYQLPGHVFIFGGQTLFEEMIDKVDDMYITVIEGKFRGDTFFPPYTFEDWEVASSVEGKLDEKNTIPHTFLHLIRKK

Row | SMILES | IC50 [1] [nM] | IC50 [2] [nM] | IC50 [3] [nM]
1 | COc1cc(Cc2cnc(N)nc2N)cc(-c2ccc3ccccc3c2)c1OC [Example 4h, 5-(3,4-dimethoxy-5-naphthalen-2-yl-benzyl)pyrimidine-2,4-diamine] | 2.2 | 1300 | 1600
2 | COc1cc(Cc2cnc(N)nc2N)cc(-c2cccc(O)c2)c1OC [Example 5b, 5-(3'-hydroxy-5,6-dimethoxy-biphenyl-3-ylmethyl)-pyrimidine-2,4-diamine] | 4 | 2200 | 2300
3 | COc1cc(Cc2cnc(N)nc2N)cc(-c2ccc(C(=O)O)cc2)c1OC [Example 5c, 5-(4'-carboxyl-5,6-dimethoxy-biphenyl-3-ylmethyl)-pyrimidine-2,4-diamine hydrochloride] | 0.9 | 420 | 480
4 | COc1cc(Cc2cnc(N)nc2N)cc(-c2ccc3cc(O)ccc3c2)c1OC [Example 5h, 5-(3,4-dimethoxy-5-naphthalen-6-hydroxy-2-yl-benzyl)-pyrimidine-2,4-diamine] | 1.3 | 500 | 1000
5 | COc1cc(Cc2cnc(N)nc2N)cc(-c2cc3c(cc2F)c(=O)c(C(=O)O)cn3C2CC2)c1OC [Example 9a, 1-cyclopropyl-7-[5-(2,4-diaminopyrimidin-5-ylmethyl)-2,3-dimethoxy-phenyl]-6-fluoro-1,4-dihydro-4-oxo-quinoline-3-carboxylic acid trifluoroacetate] | 0.9 | 50 | 19
6 | COc1ccc(Cc2cnc(N)nc2N)cc1-c1cc2c(cc1F)c(=O)c(C(=O)O)cn2C1CC1 [Example 9b, 1-cyclopropyl-7-[5-(2,4-diamino-pyrimidin-5-ylmethyl)-2-methoxy-phenyl]-6-fluoro-1,4-dihydro-4-oxo-quinoline-3-carboxylic acid trifluoroacetate] | 0.2 | 110 | 38
7 | Nc1ncc(Cc2cccc(-c3cc4c(cc3F)c(=O)c(C(=O)O)cn4C3CC3)c2)c(N)n1 [Example 9c, 1-cyclopropyl-7-[5-(2,4-diamino-pyrimidin-5-ylmethyl)-phenyl]-6-fluoro-1,4-dihydro-4-oxo-quinoline-3-carboxylic acid] | 1.9 | 210 | 200
8 | COc1cc(Cc2cnc(N)nc2N)cc(C=Cc2ccc3ccccc3c2)c1OC [Example 10b, 5-[3,4-dimethoxy-5-(2-naphthalen-2-yl-vinyl)-benzyl]-pyrimidine-2,4-diamine] | 20 | 750 | 4000
9 | CCOC(=O)c1cn(CC)c2cc(C#Cc3cc(Cc4cnc(N)nc4N)cc(OC)c3OC)ccc2c1=O [Example 12g, ethyl 1-ethyl-7-[5-(2,4-diamino-pyrimidin-5-ylmethyl)-2,3-dimethoxy-phenylethynyl]-4-oxo-1,4-dihydro-quinoline-3-carboxylate] | 5 | 130 | 900
10 | COc1cc(Cc2cnc(N)nc2N)cc(C#Cc2ccc3ccccc3c2)c1OC [Example 15a, 5-[3,4-dimethoxy-5-(naphthalen-2-ylethynyl)-benzyl]-pyrimidine-2,4-diamine] | 15 | 700 | 8000
11 | COc1cc(Cc2cnc(N)nc2N)cc(C#Cc2ccc3c(=O)c(C(=O)O)cn(C(C)(C)C)c3c2)c1OC [Example 16ac, 1-tert-butyl-7-[5-(2,4-diamino-pyrimidin-5-ylmethyl)-2,3-dimethoxy-phenylethynyl]-4-oxo-1,4-dihydro-quinoline-3-carboxylate hydrochloride] | 0.9 | 1.6 | 190
12 | COc1cc(Cc2cnc(N)nc2N)cc(C#Cc2c(F)cc3c(=O)c(C(=O)O)cn(C4CC4)c3c2F)c1OC [Example 16c, 1-cyclopropyl-7-[5-(2,4-diamino-pyrimidin-5ylmethyl)-2,3-dimethoxy-phenylethynyl]-6,8-difluoro-1,4-dihydro-4-oxo-quinoline-3-carboxylic acid hydrochloride] | 1.2 | 2.4 | 36
13 | COc1cc(Cc2cnc(N)nc2N)cc(C#Cc2cc3c(cc2F)c(=O)c(C(=O)O)cn3C2CC2)c1OC [Example 16e, 1-cyclopropyl-7-[5-(2,4-diamino-pyrimidin-5-ylmethyl)-2,3-dimethoxy-phenylethynyl]-6-fluoro-4-oxo-1,4-dihydro-quinoline-3-carboxylic acid trifluoroacetate] | 2.9 | 80 | 3400
14 | CCn1cc(C(=O)O)c(=O)c2cc(F)c(C#Cc3cc(Cc4cnc(N)nc4N)cc(OC)c3OC)cc21 [Example 16f, 1-ethyl-7-[5-(2,4-diamino-pyrimidin-5-ylmethyl)-2,3-dimethoxy-phenylethynyl]-6-fluoro-4-oxo-1,4-dihydro-quinoline-3-carboxylic acid hydrochloride] | 1.5 | 6.5 | 280
15 | COc1cc(Cc2cnc(N)nc2N)cc(C#Cc2ccc3cc(C(=O)O)ccc3c2)c1OC [Example 16j, 6-[5-(2,4-diamino-pyrimidin-5-ylmethyl)-2,3-dimethoxy-phenylethynyl]-naphthalene-2-carboxylic acid hydrochloride] | 0.9 | 24 | 5000
16 | COc1cc(Cc2cnc(N)nc2N)cc(C#Cc2ccc3c(=O)c(C(=O)O)cn(Cc4ccccc4)c3c2)c1OC [Example 16p, hydrochloride] | 1.2 | 1.3 | 140

Source: patent US5763450A, “Substituted benzyl pyrimidines” (Hoffmann-La Roche Inc., priority 1994, dated 1998)
